For the test, the system named is MDA-MB-231. Briefly: Inhibition of cell migration in human MDA-MB-231 cells at 2.5 uM incubated for 24 hrs by transwell assay. It counts as functional, cell-based.

Each structure is given as a SMILES string. Calls of active or inactive are those of the source. The rule behind the calls is not given here.

In the case of `Cc1ncsc1-c1ccc([C@H](C)NC(=O)[C@@H]2C[C@@H](O)CN2C(=O)[C@@H](NC(=O)CCc2cn(CCCCCCCn3c(=O)c(-c4ccc(Cl)cc4Cl)cc4cnc(NC5CC5)nc43)nn2)C(C)(C)C)cc1`, the inhibition result is “Active”.

The values above are taken from ChEMBL document CHEMBL6127034, “Design, synthesis and biological evaluation of a novel PAK1 degrader for the treatment of triple negative breast cancer” (Bioorg Med Chem, 2024).
